Measured values as given in article PMC6270726 (Molecules, 2014).
Values joined by “and” are separate entries in the source; they are usually repeats but may differ in a detail not shown here. Identical values can stand only once. Like-named read-outs stand apart in the source and are kept apart here.

Tests used:
SaSDH [1] = molecular target: T1, SaSDH (Staphylococcus aureus, UniProt Q6GGA5); assay: SaSDH kinetic parameters for substrates; format: biochemical, methicillin-resistant S. aureus; conditions: substrate of SaSDH; for Km: 25 °C, random bi-bi fit; for Vmax: saturating levels of both substrates; for Kd: read-out: Kia (dissociation constant)
T1 construct: 6His-tag (N); made in house; host or cells: E. coli BL21(DE3)pLysS
T1 sequence (Q6GGA5 1-268): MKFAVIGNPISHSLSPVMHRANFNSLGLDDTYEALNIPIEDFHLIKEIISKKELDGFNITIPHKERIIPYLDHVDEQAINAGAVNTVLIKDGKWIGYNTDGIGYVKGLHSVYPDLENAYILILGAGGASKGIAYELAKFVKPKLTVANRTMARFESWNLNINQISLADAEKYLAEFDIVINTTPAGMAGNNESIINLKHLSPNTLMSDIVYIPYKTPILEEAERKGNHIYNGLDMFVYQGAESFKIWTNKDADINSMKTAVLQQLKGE
Method: Data were fitted to several models of bi-substrate reactions, all of which were analyzed using SigmaPlot Enzyme Kinetics Module v1.3. […] These were used to derive the turnover number (Kcat) and Kcat/Km.
(§1) Enzyme activity was measured spectrophotometrically at 25 °C at 340 nm, following NADPH generation (ε = 6.19 × 10^3 M^−1 cm^−1). The reaction mixture contained buffer A plus 1 mM SHK, 1 mM NADP^+, and 50 ng of SaSDH.
The data were linearized by the double-reciprocal transformation of Lineweaver and Burk. […] The inversion of the data matrix allowed the determination of the dissociation constant for NADP^+.

SaSDH [2] = molecular target: T1, SaSDH; assay: SaSDH inhibition assays (single concentration and inhibition kinetics); format: biochemical; conditions: for inhibition at 200 µM: inhibition of SaSDH activity, compound at 200 µM; for IC50: i0.5 at 400 μM of substrate, 400 μM, 50% inhibition concentration; for Pattern (inhibition mechanism): Cornish-Bowden plot
Method: Once the model was built, a rigid body docking procedure for virtual screening with a library of small molecules was performed. Because the enzyme is absent in humans, we selected the substrate (SHK) binding site as the target for virtual screening (Figure 3A). From the one thousand small molecules studied, a database of 38,355 poses was generated. The one hundred molecules with the highest binding energies were selected, and the capacities of these molecules to inhibit SaSDH were assessed. Inhibition assays using a concentration of 200 µM of the latter molecules were performed.
In order to study the type of inhibition of compounds on SaSDH, pharmacological and kinetic parameters (i0.5, Kic and Kiu) were determined at various concentrations of these compounds, using SHK and NADP^+ respectively, as substrates. In Figure 4, the plots of reciprocal rate multiplied by the substrate concentrations (S/v) versus inhibitor concentration in the presence of SHK and NADP^+ are shown. The intercept of the extrapolated line on the [i] axis, that corresponds to each compound concentration, is ‒i0.5. This provided a single and accurate way of estimating i0.5, which is important if it is to be used to calculate the inhibition constant.
as §1
The data were fitted to equations for competitive, uncompetitive, non-competitive and mixed inhibition, respectively, using the kinetic module of SigmaPlot program v12.3. All experiments were repeated at least twice.
The 50% inhibition concentrations (i0.5) of compounds against SaSDH were determined and analyzed by fitting to [Equation (2)]. The inhibition mechanism and inhibition constant (Kic and Kiu) were studied by fitting the inhibition data to [Equation (3)]: [drawing 12] (2) [drawing 13] (3)
Kic is the inhibition constant derived from the intercepts, whereas Kiu is the constant derived from the slope of 1/i0.5 vs v/V plots.

[3] = Kic, substrate shikimate, inhibitor binding to the substrate site
[4] = Kiu, substrate NADP^+, inhibitor binding to enzyme-substrate complex

## NC(=O)c1ccc[n+]([C@@H]2O[C@H](COP(=O)([O-])OP(=O)(O)OC[C@H]3O[C@@H](n4cnc5c(N)ncnc54)[C@H](OP(=O)(O)O)[C@@H]3O)[C@@H](O)[C@H]2O)c1 [NADP^+]
SaSDH [1]
  Kcat: 146 s⁻¹ and 146.16 s⁻¹
  Km: 42.6 ± 9.9 µM
  Vmax: 251 µmol/min/mg and 251.41 ± 7.2 µmol/min/mg
  Kd: 21 µM

## O=C(O)C1=C[C@@H](O)[C@@H](O)[C@H](O)C1 [Shikimate, shikimate]
SaSDH [1]
  Km: 37.5 ± 3.7 µM
  Vmax: 233.6 ± 1.5 µmol/min/mg
  Kd: 21.2 µM
SaSDH [1]; listed as SHK
  Vmax: 233 µmol/min/mg
  Kd: 21.2 µM

## COC(=O)c1sc2ccccc2c1O [compound 62]
SaSDH [2]
  inhibition at 200 µM: 33%

## O=C(O)c1ccc(-c2cccs2)s1 [compound 238, 2,2'-bithiophene-5-carboxylic acid]
SaSDH [2]; [3]
  Ki: 9.53 µM
SaSDH [2]; [4]
  Ki: 48.3 µM
SaSDH [2]; substrate NADP^+
  IC50: 108 µM
SaSDH [2]; substrate shikimate
  IC50: 123 µM
SaSDH [2]
  inhibition at 200 µM: 87%
SaSDH [2]; with respect to NADP^+
  Pattern (inhibition mechanism): Uncompetitive
SaSDH [2]; with respect to shikimate
  Pattern (inhibition mechanism): Competitive

## OCC1COc2ccccc2C1 (stereo not drawn) [compound 291]
SaSDH [2]
  inhibition at 200 µM: 31%

## O=C(O)c1ccc(CN2CCOCC2)cc1 [compound 306]
SaSDH [2]
  inhibition at 200 µM: 31%

## CN(C)CCOc1ccccc1CO [compound 463]
SaSDH [2]
  inhibition at 200 µM: 45%

## CN(CCO)c1cc(C(F)(F)F)nc2ccccc12 [compound 626]
SaSDH [2]
  inhibition at 200 µM: 49%

## CCCCC#Cc1ccc(C(=O)O)o1 [compound 637]
SaSDH [2]
  inhibition at 200 µM: 29%

## O=C(O)c1csc(-c2ccc(C(F)(F)F)cc2)n1 [compound 692]
SaSDH [2]
  inhibition at 200 µM: 31%

## Cc1c(O)ccc2c1OC(C)(C)CC2=O [compound 766, 7-hydroxy-2,2,8-trimethyl-2,3-dihydro-4H-chromen-4-one]
SaSDH [2]; [3]
  Ki: 19.7 µM and 19.8 µM
SaSDH [2]; [4]
  Ki: 11.3 µM
SaSDH [2]; substrate NADP^+
  IC50: 564 µM
SaSDH [2]; substrate shikimate
  IC50: 343 µM
SaSDH [2]
  inhibition at 200 µM: 87%
SaSDH [2]; with respect to NADP^+
  Pattern (inhibition mechanism): Uncompetitive
SaSDH [2]; with respect to shikimate
  Pattern (inhibition mechanism): Competitive

## O=C1COc2cc(O)ccc21 [compound 894, 6-hydroxy-2,3-dihydrobenzo[b]furan-3-one]
SaSDH [2]; Kic, substrate NADP^+, inhibitor binding to the substrate site
  Ki: 901 µM
SaSDH [2]; [3]
  Ki: 58.3 µM
SaSDH [2]; [4]
  Ki: 5.2 µM
SaSDH [2]; Kiu, substrate shikimate, inhibitor binding to enzyme-substrate complex
  Ki: 1470 µM
SaSDH [2]; substrate NADP^+
  IC50: 614 µM
SaSDH [2]; substrate shikimate
  IC50: 143 µM
SaSDH [2]
  inhibition at 200 µM: 99%
SaSDH [2]; with respect to NADP^+
  Pattern (inhibition mechanism): Mixed-uncompetitive
SaSDH [2]; with respect to shikimate
  Pattern (inhibition mechanism): Mixed-competitive
